# Settings: both, human, pH 7.4
# Description: Liver S9 fractions are obtained from Xenotech LLC (Lenexa, Mo.). The lot is from a pool of two donors, one male and one female. The liver S9 fraction is prepared and diluted using a homogenization buffer consisting of 50 mM Tris, pH 7.4 at 4° C. and 150 mM potassium chloride without EDTA. Prodrugs are incubated in the liver homogenate for 2 hours at 37° C., after which the concentration of active metabolite is determined by LC/MS/MS. Hydrolysis of Clopidogrel to Clopidogrel Carboxylic Acid is utilized as an assay positive control.
# To ensure hydrolysis is not due to chemical instability, prodrugs are also incubated with PBS buffer alone without liver S-9.
# A mobile phase gradient is utilized starting mobile phase ratio A/B of 99.9/0.1 and finishing at 1/99.
structure (smiles),measurement,value
COC(=O)[C@H](c1ccccc1Cl)N1CCc2sccc2C1 [Clopidogrel],Hydrolysis of Clopidogrel to Clopidogrel Carboxylic Acid (positive control),73.0%
